Reference: ChEMBL document CHEMBL1140325, “Discovery of high-affinity ligands of sigma1 receptor, ERG2, and emopamil binding protein by pharmacophore modeling and virtual screening” (J Med Chem, 2005)

How the values were obtained:
[1] = molecular target: C-8 sterol isomerase ERG2 (Saccharomyces cerevisiae S288c, UniProt P32352); assay: Affinity for ERG2 of Saccharomyces cerevisiae using [3H]ifenprodil or (+)-[3H]pentazocine radioligand
[2] = molecular target: 3-beta-hydroxysteroid-Delta(8),Delta(7)-isomerase (Homo sapiens, UniProt Q15125); assay: Affinity for human EMP expressed in ERG2 deficient strain of Saccharomyces cerevisiae using [3H]ifenprodil or (+)-[3H]pentazocine as radioligand
3-beta-hydroxysteroid-Delta(8),Delta(7)-isomerase, sequence (Q15125 whole entry): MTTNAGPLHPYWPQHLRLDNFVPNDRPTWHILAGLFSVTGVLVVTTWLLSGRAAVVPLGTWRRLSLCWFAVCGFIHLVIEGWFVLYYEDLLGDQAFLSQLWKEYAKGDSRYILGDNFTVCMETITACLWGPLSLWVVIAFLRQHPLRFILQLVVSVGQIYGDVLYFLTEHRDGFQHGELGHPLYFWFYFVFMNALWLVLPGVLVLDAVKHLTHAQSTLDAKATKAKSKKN

C-8 sterol isomerase ERG2, sequence (P32352 whole entry): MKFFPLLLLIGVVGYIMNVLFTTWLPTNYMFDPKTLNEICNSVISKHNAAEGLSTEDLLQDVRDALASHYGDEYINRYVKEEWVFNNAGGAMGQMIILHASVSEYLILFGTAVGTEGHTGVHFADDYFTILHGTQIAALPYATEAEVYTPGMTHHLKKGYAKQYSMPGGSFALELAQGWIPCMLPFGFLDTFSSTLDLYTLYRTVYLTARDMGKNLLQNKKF

Row | SMILES | Ki ([1]; read-out: Ki) [nM] | Ki [2] [nM] | Ki [1] [nM]
1 | CC1CC[C@]2(NC1)O[C@H]1C[C@H]3[C@@H]4CC[C@H]5C[C@@H](O)CC[C@]5(C)[C@H]4CC[C@]3(C)[C@H]1[C@@H]2C (stereo not given in full) | 387 | 583 | 
2 | CC1=C2C[C@H]3[C@@H](CC=C4C[C@@H](O)CC[C@@]43C)[C@@H]2CC[C@]12O[C@]1(C)C[C@H](C)CN[C@H]1[C@H]2C | 500 | 654 | 
3 | C[C@H]([C@@H](O)c1ccc(O)cc1)N1CCC(Cc2ccccc2)CC1 [(S,R)-IFENPRODIL] | 1 |  | 
4 | C[C@H]1CCC2[C@@H](C)[C@H]3[C@H](C[C@H]4C5CC=C6C[C@@H](O)CC[C@]6(C)[C@H]5CC[C@]34C)N2C1 (single isomer, unassigned) | > 100000 | 441 | 
5 | O=C(CCCN1CCC(O)(c2cccc(C(F)(F)F)c2)CC1)c1ccc(F)cc1 [TRIFLUPERIDOL] | 0.15 | 165 | 
6 | CN1CCN(CCCN2c3ccccc3Sc3ccc(C(F)(F)F)cc32)CC1 [TRIFLUOPERAZINE] | 500 | 8 | 
7 | O=C(c1ccc(OCCN2CCCCC2)cc1)c1c(-c2ccc(O)cc2)sc2cc(O)ccc12 [RALOXIFENE] | 66 | 1 | 
8 | N=C(NCc1ccccc1)Nc1nc(-c2cc3ccccc3[nH]2)cs1 | 31700 | 8500 | 
9 | CC(Cc1ccc(C(C)(C)C)cc1)CN1C[C@@H](C)O[C@@H](C)C1 (stereo not given in full) [FENPROPIMORPH] | 0.05 | 30 | 
10 | CC/C(=C(\c1ccccc1)c1ccc(OCCN(C)C)cc1)c1ccccc1 [TAMOXIFEN] |  |  | 1500
11 | CCCCCCCCCCCCC(C#N)(CCCN(C)CCc1ccccc1)c1ccccc1 (stereo not given) [RONIPAMIL] | 13 | 2 | 
12 | CCN(CC)CCOc1ccc(/C(=C(\Cl)c2ccccc2)c2ccccc2)cc1 [ZUCLOMIPHENE] | 2 | 2 | 
13 | CCCN1CCC[C@H](c2cccc(O)c2)C1 | 1200 | 2200 | 
14 | CN(C/C=C/c1ccccc1)Cc1cccc2ccccc12 [NAFTIFINE] | 310 | 1500 | 
15 | CC(C)[C@](C#N)(CCCN(C)CCc1ccccc1)c1ccccc1 | 65 | 6 | 
16 | Cc1ccccc1NC(=N)Nc1ccccc1C [DITOLYLGUANIDINE] | 2000 | 6700 | 
17 | OCCN1CCN(CCCN2c3ccccc3C=Cc3ccccc32)CC1 [OPIPRAMOL] | 17 | 13 | 
18 | C[C@]12CC[C@H]3[C@@H](CCC4=CC(=O)CC[C@@]43C)[C@@H]1CC[C@@H]2O [TESTOSTERONE] | 7760 | > 100000 | 
19 | COc1cc(OC)c(C(=O)CCCN2CCCC2)c(OC)c1 [BUFLOMEDIL] | 7150 | 60 | 
20 | CN(C/C=C/C#CC(C)(C)C)Cc1cccc2ccccc12 [TERBINAFINE] | > 50000 | > 50000 | 
21 | CCCCN1CCC2(CCCc3ccccc32)CC1 | 5 | 1 | 

Row | SMILES | Ki ([1]; read-out: Ki) [nM] | Ki [2] [nM] | Ki [1] [nM]
22 | N=C(NCCSC(c1ccccc1)c1ccccc1)NCCc1cnc[nH]1 | 170 | 39 | 
23 | CCN(CC)CCO[C@H]1CC[C@@]2(C)C(=CC[C@@H]3[C@@H]2CC[C@]2(C)C(=O)CC[C@@H]32)C1 | 0.2 | 2 | 
24 | O=C(CCCN1CCC(O)(c2ccc(Cl)cc2)CC1)c1ccc(F)cc1 [HALOPERIDOL] | 0.5 | 190 | 
25 | C=CCN1CC[C@@]2(C)c3cc(O)ccc3CC1[C@H]2C | 4700 | 9300 | 
26 | CC(C)=CCN1CC[C@@]2(C)c3cc(O)ccc3CC1[C@H]2C | 1000 | 500 | 
27 | CCN(CC)CCOc1ccc(C(O)(Cc2ccc(Cl)cc2)c2ccc(C)cc2)cc1 (stereo not given) [TRIPARANOL] | 2 | 11 | 
28 | O=C(O)c1ccc(CCN2CCN(C/C=C/c3ccc(Cl)cc3)CC2)cc1 | 16500 | 34000 | 
29 | CC(C)CCCC(C)CCCC(C)N1CC[C@H]2[C@H](C)[C@@H](O)CC[C@]2(C)C1 (stereo not given in full) | 0.4 | 0.6 | 
30 | CCN(C/C=C/c1ccc(C2CCCCC2)c(Cl)c1)C1CCCCC1 | 9 | 3 | 
31 | CC(C)[C@@](C#N)(CCCN(C)CCc1ccccc1)c1ccccc1 [LEVEMOPAMIL] | 74 | 18 | 
32 | CC1CC[C@@]2(NC1)O[C@H]1C[C@H]3[C@@H]4CC=C5C[C@@H](O)CC[C@]5(C)[C@H]4CC[C@]3(C)[C@H]1[C@@H]2C (stereo not given in full) | 1170 | > 100000 | 
33 | CCCN(CCC)CCc1ccc(OC)c(OCCc2ccccc2)c1 |  | 15 | 
34 | CN(c1nc2ccccc2s1)C1CCN(CCCCOc2ccccc2)C1 (stereo not given) | 169 | 450 | 
35 | C[C@]12C[C@H](O)[C@H]3[C@@H](CCC4=CC(=O)CC[C@@]43C)[C@@H]1CC[C@@H]2C(=O)CO [CORTICOSTERONE] | > 100000 | > 100000 | 
36 | CCCCCCCCCCCCCN1C[C@@H](C)O[C@@H](C)C1 | 0.09 | 1 | 
37 | COc1ccc2c(c1)CCC(c1ccccc1)=C2c1ccc(OCCN2CCCC2)cc1 [NAFOXIDINE] | 232 |  | 
38 | CCCCCCCOc1ccccc1NC(=O)OC(C)CN(CC)CC (stereo not given) | 2800 | 51 | 
39 | CC1=C2C(=O)[C@H]3[C@@H](CC=C4C[C@@H](O)CC[C@@]43C)[C@@H]2CC[C@]12O[C@@H]1C[C@H](C)CN[C@H]1[C@H]2C [JERVINE] | 284 | > 100000 | 
40 | CC(=O)[C@H]1CC[C@H]2[C@@H]3CCC4=CC(=O)CC[C@]4(C)[C@H]3CC[C@]12C [PROGESTERONE] | 4430 | > 100000 | 
41 | CC/C(=C(/CC)c1ccc(OCCN(CC)CC)cc1)c1ccc(OCCN(CC)CC)cc1 | 0.7 | 54 | 
42 | CCN(CC)CCOc1ccc(/C(=C(/Cl)c2ccccc2)c2ccccc2)cc1 [ENCLOMIPHENE] | 160 | 1 | 
